Measurements taken from patent US20220306623A1, “PYRIDYL OR PYRIMIDYL MTOR KINASE INHIBITORS” (GLAXOSMITHKLINE INTELLECTUAL PROPERTY DEVELOPMENT LIMITED, priority 2019, published 2022).

Key:
[1] = test system: type I collagen deposition in primary lung fibroblasts derived from human tissue; experiment: High throughput type I collagen deposition (scar-in-a-jar) high content screening assay; format: cell-based; settings: Primary lung fibroblast, 72 h, human pulmonary fibroblasts, 384-well, TGF-β 1 ng/ml 72 h, total collagen area, read-out: mean pIC50, high throughput type I collagen deposition (scar-in-a-jar) (converted)
Procedure: Highthroughput, cellular type I collagen deposition was measured by adapting a published method; scar-in-a-jar (Chen et al., 2009) to primary lung fibroblasts derived from human tissue and combining with high content analysis to permit fluorescent quantification of collagen deposited in the extracellular matrix (ECM). The human biological samples were sourced ethically and their research use was in accordance with the terms of the informed consents.
Test compounds were dissolved in 100% DMSO to give 10 mM (stocks) and further diluted to give half log dilutions to generate an 11 point concentration response curve. 1 ul was transferred to 384-well plates (Greiner Group, Kremsmunster, Austria, Catalogue No Greine 781280r).
Human pulmonary fibroblasts were maintained in DMEM media (Gibco, Catalogue No 21969) supplemented with 4 mM L-glutamine (Gibco Catalogue No 25030-024) and 10% heat inactivated FBS (Gibco, Catalogue No 10099-141) at 37° C. in 10% CO2. Cells were harvested and resuspended at 4×10^6 cells/ml in a T175 cell culture flask (BD Falcom, Catalogue No: 353112) containing 50 mL of culture media. After 4 days 37° C. in 10% CO2, cells were harvested and seeded at 4000 cells per well ([…]) into 384-well plates (BD Falcon, Catalogue No 353962Greiner) in assay media (0.4% heat inactivated FBS, 4 mM L-glutamine). Plates were sealed with breathable seals (Sigma, Catalogue No. BEM-1). Assay plates were incubated for 72 h at 37° C. in 10% CO2.
Assay media was supplemented with 112.5 mg/ml Ficoll 70 (Sigma, Catalogue No F2878), 75 mg/ml Ficoll 400 (Sigma, Catalogue No F4375) and 50 µg/ml ascorbic acid (Sigma, Catalogue No A8960). 30 μL assay media were added to 1 l compound ([…] compound concentration in 1% DMSO). Diluted compounds (10 μL) were transferred to plates containing cells and incubated for 3 h at 37° C. in 10% CO2. Transforming growth factor (TGF)-β (R&D systems, Catalogue No 100-B/CF) was reconstituted to give 10 µg/mL (stock) and further diluted in assay media containing Ficoll and ascorbic acid (1 in 3333). TGF-β was added to cell plates (1 ng/ml final) and cells incubated for 72 h at 37° C. in 10% CO2.
Media was aspirated from cells and 30 µL/well 100% ice-cold methanol added and incubated at RT for 5 min to fix cells. Methanol was aspirated and cells washed with PBS (3×). To block and permeabilise, cells were incubated with PBS containing 1% BSA and 0.1% Triton X 100 for 20 min, followed by PBS wash (3×). Cells were incubated with mouse anti human type I collagen monoclonal antibody (Sigma, Catalogue No C2456) diluted 1:1000 in PBS for 24 h at 4° C. Cells were washed with PBS containing 0.1% Tween-20 (3×) and incubated with secondary alexa fluor 488 goat-anti-mouse antibody (Invitrogen, Catalogue No A11001, 1 in 500 in PBS) and Hoechst 33342 (Sigma, Catalogue No H21492), 1 in 1000 in PBS) for 1 h at RT, prior to washing with PBS containing 0.1% Tween (×4).
Type I collagen immunoreactivity was detected using the INCell 2000 Analyzer (GE Healthcare, INcell 2000) set to excitation and emission wavelengths for DAPI and FITC with laser focus and exposure adjusted to appropriate levels. Images were imported and analysed using Columbus software (Perkin Elmer) and computational algorithms to quantify “total collagen area” and “cell count”.
Data analysis was performed by determining 0/inhibition values for test compounds relative to the minimum (media only) and maximum responses (TGF-βstimulation) with non-linear regression analysis to determine IC50 values for test compounds.

[2] = test system: phosphorylated Akt at serine 473 (pAKTs473) in primary human lung fibroblasts; experiment: High throughput phosphorylated Akt (Ser473) in vitro immunoassay (MSD); format: cell-based; settings: Fibroblast, primary human lung fibroblasts (Lonza), 384-well, compound 1 h, PDGF-BB 10 ng/ml 10 min, read-out: mean pIC50, pAKTser473 high throughput immunoassay (converted)
Description: Immunoassay to measure effect of test compounds on phosphorylated Akt at serine 473 (pAKTs473) in primary human lung fibroblasts (Lonza Group Ltd, Basel, Switzerland, Catalogue No. CC-2512) using the MesoScale Discovery (MSD) platform to quantify levels of total Akt and pAKTser473.
Human lung fibroblasts were routinely maintained in fibroblast basal medium supplemented with 2% foetal bovine serum (FBS), 0.1% human fibroblast growth factor (FGF)-B, 0.1% insulin, 0.1% GA-100 (Lonza Group Ltd, Basel, Switzerland, Catalogue No. CC-3132) at 37° C. in 5% CO2 according to the manufacturer's protocol.
For the assay, cells were harvested using Trypsin/EDTA, (Lonza Group Ltd, Basel, Switzerland, Catalogue No. CC-5012), at working concentration of 0.025%, resuspended to give 3×10^5 cells/ml and 50 ul/well seeded into 384-well plates (Greiner Group, Kremsmunster, Austria, Catalogue No. 781091) in media containing 0.4% FBS and incubated o/n at 37° C. in 5% CO2.
Test compounds were dissolved in 100% DMSO to give 10 mM stock solutions and serially diluted to generate an 11-point concentration response curve. Compound were further diluted by […] into 384-well V-bottom polypropylene plates (Greiner Group, Kremsmunster, Austria, Catalogue No. 781280) with media containing 0.4% FBS to give 50 µM top compound concentration in 0.5% DMSO.
Compounds were transferred to 384-well plates contacting cells (0.1% DMSO final) and incubated for 1 h at 37° C. in 5% CO2, prior to stimulation with platelet-derived growth factor (PDGF)-BB (R&D Systems, Catalogue No. 220-BB) at 10 ng/ml (final) for 10 min at RT. Cell assay plates were incubated on ice and treated with lysis buffer (Cell Signalling Technology, Catalogue No. 9806) containing protease and phosphatase inhibitors (Thermo Scientific, Catalogue No. 78444) followed by shaking for 30 min at 4° C.
MSD plates (MSD, MA6000 384-well GAR plate, Catalogue No. L21RA-2) were blocked with blocking buffer containing TBS (MSD, Cat. No. R61TX-1) with 0.5% bovine serum albumin (BSA) (Sigma Aldrich, Cat. No. A7906), 0.1% tween-20 (Sigma Aldrich, Catalogue No. P2287) and coated with rabbit-anti-human pAkt (s473) ab (Cell Signalling Technology, Catalogue No. CST #4060) at RT with shaking, followed by washing (×3) with 1×TBS wash reagent containing 0.1% Tween-20. Cell lysates (30 ul) were added and MSD plates centrifuged at 1000 rpm at 4° C. o/n.
Plates were washed with 1×TBS wash buffer (×3), prior to addition of mouse-anti-human-total Akt ab (1 mg/ml) (Upstate (Milipore), Catalogue No. 05-591) in blocking buffer and shaken at RT for 1 h. After washing with 1×TBS wash buffer (×3), plates were incubated with goat-anti-mouse SULFO-TAG detection ab (MSD, Catalogue No. R32AC-1) (1:500 in blocking buffer) for 1 h at RT. Plates were washed with 1×TBS (×3) and read buffer (2×) (MSD, Catalogue No. R92TC-1) added before detecting electrochemiluminescence (MSD Sector Imager 6000).
Data analysis was performed by determining % inhibition values for test compounds relative to the minimum (+PDGF-BB stimulation) and maximum responses (no PDGF-BB stimulation) with non-linear regression analysis to determine IC50 values for test compounds.

mTOR = target: T1, mTOR (Homo sapiens, UniProt P42345); experiment: mTOR kinobeads competition-binding assay; settings: HuT-78 cell lysate, bead-immobilized capturing ligand, 2 h at 4° C., mean of multiple experiments; read-out: mean pIC50, mTOR kinobeads assay (converted)
T1 construct: capturing of endogenously expressed target proteins from cell extracts by a bead-immobilized capturing ligand; endogenous in cells; host or cells: HuT-78 cells (ECACC 88041901), cell lysate
Procedure: The affinity of test compounds for mTOR was determined in the mTOR kinobeads assay. This is a competition-binding assay based on the capturing of endogenously expressed target proteins from cell extracts by a bead-immobilized capturing ligand in the presence of the test compound.
HuT-78 cells (European Collection of Authenticated Cell Cultures, 88041901) were cultured according to vendor's instructions. Frozen cell pellets were homogenized in 3× pellet volumes lysis buffer (50 mM Tris-HCl, 0.4% (v/v) Igepal-CA630, 5% glycerol, 150 mM NaCl, 1.5 mM MgCl2, 25 mM NaF, 1 mM sodium vanadate, 1 mM DTT, pH 7.5, supplemented with EDTA-free protease inhibitor tablet (Roche)). The sample was dispersed using a Dounce homogenizer, kept rotating for 30 min at 4° C., and centrifuged for 10 min at 20000 gat 4° C. The supernatant was centrifuged again for 1 h at 145 000 g. The protein concentration was determined by Bradford assay (BioRad), aliquots were snap frozen in liquid nitrogen and stored at −80° C.
The capturing matrices were generated by derivatizing N-hydroxysuccinimide (NHS) activated Sepharose 4 beads (GE Healthcare) with the functionalized ligands Compound A and Compound C at a ligand density of 5 mM. Remaining NHS-groups were blocked with ethanolamine.
For the mTOR kinobeads assay the matrices were combined in a 1:1 ratio and equilibrated in DP buffer (50 mM Tris-HCl (pH 7.5), 0.4% (v/v) Igepal-CA630, 5% (v/v) glycerol, 150 mM NaCl, 1.5 mM MgCl2, 25 mM NaF, 1 mM Na3VO4, 1 mM dithiothreitol). All steps of the mTOR kinobeads assay were performed at 4° C. or on ice. The cell lysate was diluted with DP buffer to a final concentration of 5 mg/ml and a final detergent concentration of 0.4% (v/v) Igepal-CA630. For the assay 250 μg cell lysate and 2.5 μl capturing matrix per well (final assay volume: 75 μl) were incubated in the presence of test compounds in a 384-well filter plate (MultiScreenHTS HV Filter Plate, 0.45 μm, MZHVNOW50, Merck Millipore). Each plate contained 16 positive (100 μM Compound B) and 16 negative (2% v/v DMSO) control wells. Compounds were tested in a concentration-response applying 1:3 or 1:4 dilution steps for in total 11 data points. DMSO concentration was 2% (v/v). After 2 h incubation on an overhead shaker (Roto-Shake Genie, Scientific Industries Inc.) at 4° C. the non-bound fraction was removed by washing the beads with DP buffer. Proteins retained on the beads were eluted in SDS sample buffer (200 mM Tris (pH 7.4), 250 mM Trizma Base, 4% (w/v) SDS, 20% (v/v) glycerol, 0.01% (w/v) bromophenol blue, 50 mM dithiothreitol) into a collection plate (384 well polypropylene microplate, V-shape, Greiner, 781 280). Eluates were spotted on nitrocellulose membranes (400 nl per spot) using an automated pin-tool liquid transfer (Biomek FX, Beckman). After drying, the membranes were rehydrated in 20% (v/v) ethanol and blocked by incubation with Odyssey blocking buffer (LICOR, 927-40000) for 1 h at room temperature. Blocked membranes were incubated overnight at 25° C. with Odyssey blocking buffer supplemented with a specific anti-mTOR antibody (Cell Signaling, 2972; 1:500) and 0.4% TWEEN-20. Then the membranes were washed in PBST buffer and incubated for 60 minutes at room temperature with the detection antibody (IRDye™ labelled antibody from LI-COR) diluted in Odyssey blocking buffer (LICOR 927-40000) containing 0.2% TWEEN-20. Then the membranes were washed with PBST and finally rinsed twice with PBS buffer to remove residual Tween-20. The membranes were then scanned with the Odyssey® Infrared Imaging System (LI-COR Biosciences). Fluorescence signals were recorded and analyzed according to the instructions of the manufacturer. Concentration response curves were computed with the software Activity Base. All data were normalized to the mean of 16 high (negative control) and 16 low (positive control) control wells on each plate. […]

SMILES | IC50 [1] [nM] | IC50 [2] [nM] | IC50 (mTOR) [nM]
CC[C@H]1COCCN1c1cc(C2(S(C)(=O)=O)CCOCC2)cc(-c2ccc3[nH]c(C)cc3n2)n1 [Example 21, (S)-3-ethyl-4-(6-(2-methyl-1H-pyrrolo[3,2-b]pyridin-5-yl)-4-(4-(methylsulfonyl)tetra-hydro-2H-pyran-4-yl)pyridin-2-yl)morpholine] | 20 to 3160 | 2.51 to 25.1 | –
CC[C@H]1COCCN1c1cc(CS(C)(=O)=O)cc(-c2ccc3[nH]c(C)cc3n2)n1 [Example 22, (S)-3-ethyl-4-(6-(2-methyl-1H-pyrrolo[3,2-b]pyridin-5-yl)-4-((methylsulfonyl)methyl)pyridin-2-yl)morpholine] | 20 to 3160 | 2.51 to 25.1 | –
CC[C@@H]1COCC(=O)N1c1cc(CS(C)(=O)=O)cc(-c2ccc3[nH]c(CNC)cc3n2)n1 [Example 34, (R)-5-ethyl-4-(6-(2-((methylamino)methyl)-1H-pyrrolo[3,2-b]pyridin-5-yl)-4-((methylsulfonyl)methyl)pyridin-2-yl)morpholin-3-one] | – | 7940 | 1260
